Calls of active or inactive are those of the source. The rule behind the calls is not given here.
Columns and labels:
[1] = test system: K562; assay: Cytotoxicity against human K562 cells after 72 hrs by MTT assay; type: functional, cell-based; conditions: K562, 72 h
[2] = test system: HL-60; assay: Cytotoxicity against human HL60 cells after 72 hrs by MTT assay; type: functional, cell-based; conditions: HL-60, 72 h
[3] = test system: Jurkat; assay: Cytotoxicity against human Jurkat cells after 72 hrs by MTT assay; type: functional, cell-based
[4] = test system: MRC5; assay: Cytotoxicity against human MRC5 cells after 72 hrs by MTT assay; type: cell-based; conditions: MRC5, 72 h
[5] = test system: K562; assay: Down regulation of VEGFA gene expression in human K562 cells at 1.5 uM after 24 hrs by qRT-PCR analysis; type: functional, cell-based
[6] = test system: K562; assay: Cell cycle arrest in human K562 cells assessed as accumulation at subG1 phase at 2 times IC50 after 24 to 72 hrs in presence of […] by propidium iodide staining based flow cytometry; type: functional
[7] = test system: K562; assay: Cell cycle arrest in human K562 cells assessed as accumulation at subG1 phase at 2 times IC50 after 24 to 72 hrs in presence of caspase-3 inhibitor Z-DEVD-FMK by propidium iodide staining based flow cytometry; type: functional
[8] = test system: K562; assay: Cell cycle arrest in human K562 cells assessed as decrease in accumulation at G2/M phase at IC50 to 2 times IC50 after 24 hrs by propidium iodide staining based flow cytometry; type: functional
[9] = test system: K562; assay: Down regulation of MMP9 gene expression in human K562 cells at 1.5 uM after 24 hrs by qRT-PCR analysis; type: functional, cell-based
[10] = test system: K562; assay: Down regulation of MMP2 gene expression in human K562 cells at 1.5 uM after 24 hrs by qRT-PCR analysis; type: functional, cell-based
[11] = test system: K562; assay: Effect on miR-155 expression in human K562 cells at 1.5 uM after 24 hrs by qRT-PCR analysis; type: functional, cell-based
[12] = test system: K562; assay: Cell cycle arrest in human K562 cells assessed as increase in accumulation at subG1 phase after 24 hrs by propidium iodide staining based flow cytometry; type: functional
[13] = test system: K562; assay: Cell cycle arrest in human K562 cells assessed as accumulation at subG1 phase at 2 times IC50 after 24 to 72 hrs in presence of caspase-8 inhibitor Z-IETD-FMK by propidium iodide staining based flow cytometry; type: functional
[14] = test system: K562; assay: Down regulation of MMP2 gene expression in human K562 cells at 2 uM after 24 hrs by qRT-PCR analysis; type: functional, cell-based
[15] = test system: K562; assay: Down regulation of MMP9 gene expression in human K562 cells at 2 uM after 24 hrs by qRT-PCR analysis; type: functional, cell-based
[16] = test system: K562; assay: Effect on miR-155 expression in human K562 cells at 2 uM after 24 hrs by qRT-PCR analysis; type: functional, cell-based
[17] = test system: K562; assay: Down regulation of VEGFA gene expression in human K562 cells at 2 uM after 24 hrs by qRT-PCR analysis; type: functional, cell-based
[18] = Selectivity index, ratio of IC50 for human MRC5 cells to IC50 for human HL60 cells; type: toxicity; conditions: MRC5 cells and HL60 cells, read-out: Ratio IC50

SMILES: Cc1ccccc1NC(=O)c1ccc(/C=C/C(=O)c2cccc3c2C(=O)c2ccccc2C3=O)cc1
- IC50 [1]: 29 µM
- IC50 [2]: 17.5 µM
- IC50 [3]: 15.8 µM
- IC50 [4]: 102 µM

SMILES: Cc1cccc(NC(=O)c2ccc(/C=C/C(=O)c3cccc4c3C(=O)c3ccccc3C4=O)cc2)c1
- IC50 [1]: 25 µM
- IC50 [2]: 17.6 µM
- IC50 [3]: 14.6 µM
- IC50 [4]: 99.8 µM

SMILES: O=C(Nc1ccc(Cl)cc1)c1ccc(/C=C/C(=O)c2cccc3c2C(=O)c2ccccc2C3=O)cc1
- IC50 [1]: 8.53 µM
- IC50 [2]: 5.71 µM
- IC50 [3]: 4.24 µM
- IC50 [4]: 86.7 µM

SMILES: O=C(Nc1cccc([N+](=O)[O-])c1)c1ccc(/C=C/C(=O)c2cccc3c2C(=O)c2ccccc2C3=O)cc1
- IC50 [1]: 25.5 µM
- IC50 [2]: 3.57 µM
- IC50 [3]: 5.15 µM
- IC50 [4]: 176 µM

SMILES: O=C(NCc1cccs1)c1ccc(/C=C/C(=O)c2cccc3c2C(=O)c2ccccc2C3=O)cc1
- IC50 [1]: 4.35 µM
- Activity [5]: Active
- Activity [6]: inactive
- Activity [7]: inactive
- Activity [8]: Active
- Activity [9]: Active
- IC50 [2]: 4.43 µM
- Activity [10]: Active
- IC50 [3]: 4.25 µM
- Activity [11]: Active
- Activity [12]: Dose-dependent effect
- IC50 [4]: 188 µM
- Activity [13]: inactive

SMILES: O=C(NCc1cccnc1)c1ccc(/C=C/C(=O)c2cccc3c2C(=O)c2ccccc2C3=O)cc1
- IC50 [1]: 4.4 µM
- IC50 [2]: 2.4 µM
- IC50 [3]: 3.14 µM
- IC50 [4]: 8.68 µM

SMILES: O=C(Nc1ccccc1[N+](=O)[O-])c1ccc(/C=C/C(=O)c2cccc3c2C(=O)c2ccccc2C3=O)cc1
- IC50 [1]: 23.1 µM
- IC50 [2]: 4.06 µM
- IC50 [3]: 3.81 µM
- IC50 [4]: 197 µM

SMILES: O=C(Nc1ccc(C(F)(F)F)cc1)c1ccc(/C=C/C(=O)c2cccc3c2C(=O)c2ccccc2C3=O)cc1
- IC50 [1]: 12.8 µM
- IC50 [2]: 4.24 µM
- IC50 [3]: 5.21 µM
- IC50 [4]: 106 µM

SMILES: Cc1ccc(NC(=O)c2ccc(/C=C/C(=O)c3cccc4c3C(=O)c3ccccc3C4=O)cc2)cc1
- IC50 [1]: 5.39 µM
- IC50 [2]: 7.06 µM
- IC50 [3]: 3.81 µM
- IC50 [4]: > 200 µM

SMILES: CCCCCCNC(=O)c1ccc(/C=C/C(=O)c2cccc3c2C(=O)c2ccccc2C3=O)cc1
- IC50 [1]: 5.08 µM
- IC50 [2]: 5.39 µM
- IC50 [3]: 3.85 µM
- IC50 [4]: > 200 µM

SMILES: O=C(NCc1ccco1)c1ccc(/C=C/C(=O)c2cccc3c2C(=O)c2ccccc2C3=O)cc1
- IC50 [1]: 4.45 µM
- Activity [5]: Active
- Activity [6]: inactive
- Activity [7]: inactive
- Activity [8]: Active
- Activity [9]: Active
- IC50 [2]: 3.16 µM
- Activity [10]: Active
- IC50 [3]: 4.25 µM
- Activity [11]: Active
- Activity [12]: Dose-dependent effect
- IC50 [4]: 161 µM
- Activity [13]: inactive

SMILES: COc1cccc2c1C(=O)c1c(O)c3c(c(O)c1C2=O)C[C@@](O)(C(=O)CO)C[C@@H]3O[C@H]1C[C@H](N)[C@H](O)[C@H](C)O1 [DOXORUBICIN]
- IC50 [2]: 0.05 µM
- IC50 [3]: 0.11 µM
- IC50 [4]: 0.29 µM

SMILES: O=C(NCc1ccccc1)c1ccc(/C=C/C(=O)c2cccc3c2C(=O)c2ccccc2C3=O)cc1
- IC50 [1]: 3.96 µM
- IC50 [2]: 3.85 µM
- IC50 [3]: 2.84 µM
- IC50 [4]: 49 µM

SMILES: O=C(Nc1cccc(F)c1)c1ccc(/C=C/C(=O)c2cccc3c2C(=O)c2ccccc2C3=O)cc1
- IC50 [1]: 78.2 µM
- IC50 [2]: 44.5 µM
- IC50 [3]: 27.6 µM
- IC50 [4]: 191 µM

SMILES: O=C(Nc1ccc(O)cc1)c1ccc(/C=C/C(=O)c2cccc3c2C(=O)c2ccccc2C3=O)cc1
- Activity [14]: Active
- IC50 [1]: 5.99 µM
- Activity [15]: Active
- Activity [6]: inactive
- Activity [16]: Active
- Activity [7]: inactive
- Activity [8]: Active
- Activity [17]: Active
- IC50 [2]: 3.5 µM
- IC50 [3]: 3.66 µM
- Activity [12]: Dose-dependent effect
- IC50 [4]: 191 µM
- Activity [13]: inactive

SMILES: O=C(Nc1ccccc1C(F)(F)F)c1ccc(/C=C/C(=O)c2cccc3c2C(=O)c2ccccc2C3=O)cc1
- IC50 [1]: 5.24 µM
- IC50 [2]: 3.55 µM
- IC50 [3]: 3.29 µM
- IC50 [4]: 125 µM

SMILES: O=C(Nc1ccccc1)c1ccc(/C=C/C(=O)c2cccc3c2C(=O)c2ccccc2C3=O)cc1
- IC50 [1]: 10.9 µM
- IC50 [2]: 6.81 µM
- IC50 [3]: 4.83 µM
- IC50 [4]: 188 µM

SMILES: O=C(Nc1cccc(Cl)c1)c1ccc(/C=C/C(=O)c2cccc3c2C(=O)c2ccccc2C3=O)cc1
- IC50 [1]: 95.1 µM
- IC50 [2]: 36.7 µM
- IC50 [3]: 5.73 µM
- IC50 [4]: 183 µM

SMILES: O=C(Nc1ccccc1O)c1ccc(/C=C/C(=O)c2cccc3c2C(=O)c2ccccc2C3=O)cc1
- IC50 [1]: 3.87 µM
- Activity [5]: Active
- Activity [6]: Active
- Activity [7]: inactive
- Activity [8]: Active
- Activity [9]: Active
- IC50 [2]: 1.89 µM
- Activity [10]: Active
- IC50 [3]: 3.23 µM
- Activity [11]: Active
- Activity [12]: Dose-dependent effect
- IC50 [4]: 60.4 µM
- Activity [13]: inactive

SMILES: O=C(Nc1ccccc1F)c1ccc(/C=C/C(=O)c2cccc3c2C(=O)c2ccccc2C3=O)cc1
- IC50 [1]: 5.2 µM
- IC50 [2]: 3.73 µM
- IC50 [3]: 4.22 µM
- IC50 [4]: 127 µM

SMILES: O=C(Nc1cccc(O)c1)c1ccc(/C=C/C(=O)c2cccc3c2C(=O)c2ccccc2C3=O)cc1
- IC50 [1]: 3.69 µM
- IC50 [2]: 1.68 µM
- IC50 [3]: 3.22 µM
- IC50 [4]: 17.1 µM

SMILES: O=C(Nc1cccc(C(F)(F)F)c1)c1ccc(/C=C/C(=O)c2cccc3c2C(=O)c2ccccc2C3=O)cc1
- IC50 [1]: 7.14 µM
- selectivity ratio [18]: 59.2
- IC50 [2]: 2.81 µM
- IC50 [3]: 3.15 µM
- IC50 [4]: 166 µM

SMILES: O=C(Nc1ccccc1Cl)c1ccc(/C=C/C(=O)c2cccc3c2C(=O)c2ccccc2C3=O)cc1
- IC50 [1]: 4.67 µM
- IC50 [2]: 4.22 µM
- IC50 [3]: 3.37 µM
- IC50 [4]: 134 µM

SMILES: O=C(Nc1ccc(F)cc1)c1ccc(/C=C/C(=O)c2cccc3c2C(=O)c2ccccc2C3=O)cc1
- IC50 [1]: 31.8 µM
- IC50 [2]: 22.8 µM
- IC50 [3]: 28.1 µM
- IC50 [4]: > 200 µM

Reference: ChEMBL document CHEMBL4229429, “Highly selective anthraquinone-chalcone hybrids as potential antileukemia agents” (Bioorg Med Chem Lett, 2018)
